# Patent EP4578856A1, “HETEROCYCLIC COMPOUND” (Ubience Inc., priority 2022, dated 2024)
# Molecular target: ROCK2 protein (Homo sapiens, UniProt O75116)
# Assay: Degradation inducing activity of ROCK2 protein in HUVEC cells, Western blotting (Simple Western JESS)
# Type: cell-based
# Set-up: endogenous in cells; host or cells: HUVEC (ATCC CRL-1730)
# Settings: for inhibition at 1 µM / inhibition at 10 µM: HUVEC, 24 h; for ROCK2 protein degradation rate: 24 hours
# Outline: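 HUVEC cells treated 24 h with compound at 10 µM or 1 µM, then lysed; ROCK2 quantified by capillary Western (Simple Western JESS) using rabbit mAb D1B1, normalized to total loaded protein. Degradation rate (%) calculated relative to DMSO control set at 100%, binned A ≥75%, B 50–75%, C 25–50%, D <25%.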
# Sequence of ROCK2 protein (O75116 whole entry): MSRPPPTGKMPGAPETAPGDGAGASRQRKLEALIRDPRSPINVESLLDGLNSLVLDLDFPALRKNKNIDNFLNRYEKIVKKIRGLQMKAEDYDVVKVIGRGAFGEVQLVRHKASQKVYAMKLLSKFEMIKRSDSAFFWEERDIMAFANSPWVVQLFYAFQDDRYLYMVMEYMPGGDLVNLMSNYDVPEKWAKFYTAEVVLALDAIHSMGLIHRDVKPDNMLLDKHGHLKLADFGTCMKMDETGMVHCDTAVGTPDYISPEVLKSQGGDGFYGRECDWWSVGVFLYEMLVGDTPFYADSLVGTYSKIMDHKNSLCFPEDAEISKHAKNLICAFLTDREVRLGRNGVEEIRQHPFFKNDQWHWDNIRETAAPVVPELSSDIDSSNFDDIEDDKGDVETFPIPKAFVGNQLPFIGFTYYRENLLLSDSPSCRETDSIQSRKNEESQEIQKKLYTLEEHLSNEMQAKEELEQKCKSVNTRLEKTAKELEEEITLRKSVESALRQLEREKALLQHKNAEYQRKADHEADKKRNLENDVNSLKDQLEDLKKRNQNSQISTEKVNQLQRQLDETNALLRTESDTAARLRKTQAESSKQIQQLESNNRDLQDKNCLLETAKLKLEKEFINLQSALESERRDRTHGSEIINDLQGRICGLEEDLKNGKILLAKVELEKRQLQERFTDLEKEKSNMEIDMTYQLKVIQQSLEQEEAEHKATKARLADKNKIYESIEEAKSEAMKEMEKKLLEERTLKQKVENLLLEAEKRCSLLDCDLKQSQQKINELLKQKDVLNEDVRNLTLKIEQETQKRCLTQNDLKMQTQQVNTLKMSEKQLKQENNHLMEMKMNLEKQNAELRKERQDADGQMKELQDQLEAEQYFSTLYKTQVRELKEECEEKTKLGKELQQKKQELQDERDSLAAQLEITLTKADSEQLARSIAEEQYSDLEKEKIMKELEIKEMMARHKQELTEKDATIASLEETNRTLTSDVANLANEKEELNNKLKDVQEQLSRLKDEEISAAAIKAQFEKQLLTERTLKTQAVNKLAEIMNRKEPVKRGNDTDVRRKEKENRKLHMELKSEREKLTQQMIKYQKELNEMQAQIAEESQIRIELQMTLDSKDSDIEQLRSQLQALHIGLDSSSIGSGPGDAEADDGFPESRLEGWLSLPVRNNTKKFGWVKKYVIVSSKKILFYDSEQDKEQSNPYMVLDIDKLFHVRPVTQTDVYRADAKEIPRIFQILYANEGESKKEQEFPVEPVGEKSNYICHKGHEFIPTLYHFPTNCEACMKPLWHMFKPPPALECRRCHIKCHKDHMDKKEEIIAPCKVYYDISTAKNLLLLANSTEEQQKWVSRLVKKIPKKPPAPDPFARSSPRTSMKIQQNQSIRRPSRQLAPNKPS
structure (smiles),measurement,setting,value
"COC[C@H]1CN[C@H](C)CN1CC(=O)N1CC(C)(C)c2ncc(Cc3ccccc3OCCOCCOCCOCCOCCOCCOCCNC[C@@H](C(=O)Nc3ccc4cnccc4c3)c3ccccc3)cc21 [Example 83, (S)-N-(Isoquinolin-6-yl)-1-(2-((1-(2-((2R,5R)-2-(methoxymethyl)-5-methylpiperazin-1-yl)acetyl)-3,3-dimethyl-2,3-dihydro-1H-pyrrolo[3,2-b]pyridin-6-yl)methyl)phenoxy)-23-phenyl-3,6,9,12,15,18-hexaoxa-21-azatetracosan-24-amide]",inhibition at 1 µM,degradation rate at 1 µM,50 to 75%
same,inhibition at 10 µM,degradation rate at 10 µM,≥ 75%
"COC[C@H]1CN[C@H](C)CN1CC(=O)N1CC(C)(C)c2ncc(Cc3cccc(OCCOCCOCCN[C@H](Cc4cccc(F)c4)C(=O)Nc4ccc(-c5ccncc5)cc4)c3)cc21 [Example 51, (R)-3-(3-Fluorophenyl)-2-((2-(2-(2-(3-((1-(2-((2R,5R)-2-(methoxymethyl)-5-methylpiperazin-1-yl)acetyl)-3,3-dimethyl-2,3-dihydro-1H-pyrrolo[3,2-b]pyridin-6-yl)methyl)phenoxy)ethoxy)ethoxy)ethyl)amino)-N-(4-(pyridin-4-yl)phenyl)propenamide]",inhibition at 1 µM,degradation rate at 1 µM,50 to 75%
same,inhibition at 10 µM,degradation rate at 10 µM,≥ 75%
"COC[C@H]1CN[C@H](C)CN1CC(=O)N1CC(C)(C)c2nc(CN(C)CCOCCOCCOCCOCCOCCNC[C@@H](C(=O)Nc3ccc4cnccc4c3)c3ccccc3)c(Cc3ccc(F)cc3)cc21 [Example 40, (S)-1-(6-(4-Fluorobenzyl)-1-(2-((2R,5R)-2-(methoxymethyl)-5-methylpiperazin-1-yl)acetyl)-3,3-dimethyl-2,3-dihydro-1H-pyrrolo[3,2-b]pyridin-5-yl)-N-(isoquinolin-6-yl)-2-methyl-22-phenyl-5,8,11,14,17-pentaoxa-2,20-diazatricosan-23-amide]",inhibition at 1 µM,degradation rate at 1 µM,25 to 50%
same,inhibition at 10 µM,degradation rate at 10 µM,50 to 75%
"C[C@@H]1CN(CC(=O)N2CC(C)(C)c3ncc(Cc4ccc(F)cc4)cc32)[C@@H](CN(C)CCOCCOCCOCCOCCOCCOCCN[C@H](C)c2ccc(C(=O)Nc3ccncc3)cc2)CN1 [Example 6, 4-((R)-1-((2R,5R)-1-(2-(6-(4-Fluorobenzyl)-3,3-dimethyl-2,3-dihydro-1H-pyrrolo[3,2-b]pyridin-1-yl)-2-oxoethyl)-5-methylpiperazin-2-yl)-2-methyl-5,8,11,14,17,20-hexaoxa-2,23-diazapentacosan-24-yl)-N-(pyridin-4-yl)benzamide]",inhibition at 1 µM,degradation rate at 1 µM,50 to 75%
same,inhibition at 10 µM,degradation rate at 10 µM,≥ 75%
"COC[C@H]1CN[C@H](C)CN1CC(=O)N1CC(C)(C)c2ncc(Cc3ccccc3OCCOCCOCCOCCN[C@H](Cc3cccc(F)c3)C(=O)Nc3ccc(-c4ccncc4)cc3)cc21 [Example 73, (R)-2-(3-Fluorobenzyl)-14-(2-((1-(2-((2R,5R)-2-(methoxymethyl)-5-methylpiperazin-1-yl)acetyl)-3,3-dimethyl-2,3-dihydro-1H-pyrrolo[3,2-b]pyridin-6-yl)methyl)phenoxy)-N-(4-(pyridin-4-yl)phenyl)-6,9,12-trioxa-3-azatetradecanamide]",inhibition at 1 µM,degradation rate at 1 µM,< 25%
same,inhibition at 10 µM,degradation rate at 10 µM,≥ 75%
"C[C@@H]1CN(CC(=O)N2CC(C)(C)c3ncc(Cc4ccc(F)cc4)cc32)[C@@H](CN(C)CCOCCOCCN[C@H](C)c2ccc(C(=O)Nc3ccncc3)cc2)CN1 [Example 2, 4-((R)-1-((2R,5R)-1-(2-(6-(4-Fluorobenzyl)-3,3-dimethyl-2,3-dihydro-1H-pyrrolo[3,2-b]pyridin-1-yl)-2-oxoethyl)-5-methylpiperazin-2-yl)-2-methyl-5,8-dioxa-2,11-diazatridecan-12-yl)-N-(pyridin-4-yl)benzamide]",inhibition at 1 µM,degradation rate at 1 µM,< 25%
same,inhibition at 10 µM,degradation rate at 10 µM,50 to 75%
"COC[C@H]1CN[C@H](C)CN1CC(=O)N1CC(C)(C)c2ncc(Cc3cccc(OCCOCCN[C@H](Cc4cccc(F)c4)C(=O)Nc4ccc(-c5ccncc5)cc4)c3)cc21 [Example 50, (R)-3-(3-Fluorophenyl)-2-((2-(2-(3-((1-(2-((2R,5R)-2-(methoxymethyl)-5-methylpiperazin-1-yl)acetyl)-3,3-dimethyl-2,3-dihydro-1H-pyrrolo[3,2-b]pyridin-6-yl)methyl)phenoxy)ethoxy)ethyl)amino)-N-(4-(pyridin-4-yl)phenyl)propanamide]",inhibition at 1 µM,degradation rate at 1 µM,25 to 50%
same,inhibition at 10 µM,degradation rate at 10 µM,≥ 75%
"COC[C@H]1CN[C@H](C)CN1CC(=O)N1CC(C)(C)c2ncc(Cc3ccccc3OCCOCCOCCOCCOCCOCCOCCOCCN[C@H](Cc3cccc(F)c3)C(=O)Nc3ccc(-c4ccncc4)cc3)cc21 [Example 77, (R)-2-(3-Fluorobenzyl)-26-(2-((1-(2-((2R,5R)-2-(methoxymethyl)-5-methylpiperazin-1-yl)acetyl)-3,3-dimethyl-2,3-dihydro-1H-pyrrolo[3,2-b]pyridin-6-yl)methyl)phenoxy)-N-(4-(pyridin-4-yl)phenyl)-6,9,12,15,18,21,24-heptaoxa-3-azahexacosanamide]",inhibition at 1 µM,degradation rate at 1 µM,< 25%
same,inhibition at 10 µM,degradation rate at 10 µM,≥ 75%
"C[C@@H]1CN(CC(=O)N2CC(C)(C)c3ncc(Cc4ccc(F)cc4)cc32)[C@@H](CN(C)CCOCCOCCOCCOCCOCCOCCOCCNC[C@@H](C(=O)Nc2ccc3cnccc3c2)c2ccccc2)CN1 [Example 21, (S)-1-((2R,5R)-1-(2-(6-(4-Fluorobenzyl)-3,3-dimethyl-2,3-dihydro-1H-pyrrolo[3,2-b]pyridin-1-yl)-2-oxoethyl)-5-methylpiperazin-2-yl)-N-(isoquinolin-6-yl)-2-methyl-28-phenyl-5,8,11,14,17,20,23-heptaoxa-2,26-diazanonacosan-29-amide]",inhibition at 1 µM,degradation rate at 1 µM,25 to 50%
same,inhibition at 10 µM,degradation rate at 10 µM,50 to 75%
"COC[C@H]1CN[C@H](C)CN1CC(=O)N1CC(C)(C)c2ncc(Cc3cccc(OCCOCCOCCOCCOCCOCCN[C@H](C)c4ccc(C(=O)Nc5ccncc5)cc4)c3)cc21 [Example 47, 4-((R)-20-(3-((1-(2-((2R,5R)-2-(Methoxymethyl)-5-methylpiperazin-1-yl)acetyl)-3,3-dimethyl-2,3-dihydro-1H-pyrrolo[3,2-b]pyridin-6-yl)methyl)phenoxy)-6,9,12,15,18-pentaoxa-3-azaicosan-2-yl)-N-(pyridin-4-yl)benzamide]",inhibition at 1 µM,degradation rate at 1 µM,50 to 75%
same,inhibition at 10 µM,degradation rate at 10 µM,≥ 75%
"COC[C@H]1CN[C@H](C)CN1CC(=O)N1CC(C)(C)c2ncc(Cc3cccc(OCCOCCOCCN[C@H](C)c4ccc(C(=O)Nc5ccncc5)cc4)c3)cc21 [Example 44, 4-((R)-1-((2-(2-(2-(3-((1-(2-((2R,5R)-2-(Methoxymethyl)-5-methylpiperazin-1-yl)acetyl)-3,3-dimethyl-2,3-dihydro-1H-pyrrolo[3,2-b]pyridin-6-yl)methyl)phenoxy)ethoxy)ethoxy)ethyl)amino)ethyl)-N-(pyridin-4-yl)benzamide]",inhibition at 1 µM,degradation rate at 1 µM,50 to 75%
same,inhibition at 10 µM,degradation rate at 10 µM,≥ 75%
"COC[C@H]1CN[C@H](C)CN1CC(=O)N1CC(C)(C)c2ncc(Cc3ccccc3OCCOCCOCCOCCOCCOCCN[C@H](C)c3ccc(C(=O)Nc4ccncc4)cc3)cc21 [Example 68, 4-((R)-20-(2-((1-(2-((2R,5R)-2-(Methoxymethyl)-5-methylpiperazin-1-yl)acetyl)-3,3-dimethyl-2,3-dihydro-1H-pyrrolo[3,2-b]pyridin-6-yl)methyl)phenoxy)-6,9,12,15,18-pentaoxa-3-azaicosan-2-yl)-N-(pyridin-4-yl)benzamide]",inhibition at 1 µM,degradation rate at 1 µM,≥ 75%
"COC[C@H]1CN[C@H](C)CN1CC(=O)N1CC(C)(C)c2ncc(Cc3cccc(OCCOCCOCCOCCOCCOCCOCCOCCNC[C@@H](C(=O)Nc4ccc5cnccc5c4)c4ccccc4)c3)cc21 [Example 63, (S)-N-(Isoquinolin-6-yl)-1-(3-((1-(2-((2R,5R)-2-(methoxymethyl)-5-methylpiperazin-1-yl)acetyl)-3,3-dimethyl-2,3-dihydro-1H-pyrrolo[3,2-b]pyridin-6-yl)methyl)phenoxy)-26-phenyl-3,6,9,12,15,18,21-heptaoxa-24-azaheptacosan-27-amide]",inhibition at 1 µM,degradation rate at 1 µM,< 25%
same,inhibition at 10 µM,degradation rate at 10 µM,50 to 75%
"COC[C@H]1CN[C@H](C)CN1CC(=O)N1CC(C)(C)c2ncc(Cc3ccccc3OCCOCCOCCN[C@H](C)c3ccc(C(=O)Nc4ccncc4)cc3)cc21 [Example 65, 4-((R)-1-((2-(2-(2-(2-((1-(2-((2R,5R)-2-(Methoxymethyl)-5-methylpiperazin-1-yl)acetyl)-3,3-dimethyl-2,3-dihydro-1H-pyrrolo[3,2-b]pyridin-6-yl)methyl)phenoxy)ethoxy)ethoxy)ethyl)amino)ethyl)-N-(pyridin-4-yl)benzamide]",ROCK2 protein degradation rate,degradation rate at 1 µM,D (D < 25%)
same,ROCK2 protein degradation rate,degradation rate at 10 µM,B (75% > B ≥ 50%)
"COC[C@H]1CN[C@H](C)CN1CC(=O)N1CC(C)(C)c2nc(CN(C)CCOCCOCCOCCNC[C@@H](C(=O)Nc3ccc4cnccc4c3)c3ccccc3)c(Cc3ccc(F)cc3)cc21 [Example 38, (S)-1-(6-(4-Fluorobenzyl)-1-(2-((2R,5R)-2-(methoxymethyl)-5-methylpiperazin-1-yl)acetyl)-3,3-dimethyl-2,3-dihydro-1H-pyrrolo[3,2-b]pyridin-5-yl)-N-(isoquinolin-6-yl)-2-methyl-16-phenyl-5,8,11-trioxa-2,14-diazaheptadecan-17-amide]",inhibition at 1 µM,degradation rate at 1 µM,< 25%
same,inhibition at 10 µM,degradation rate at 10 µM,≥ 75%
"COC[C@H]1CN[C@H](C)CN1CC(=O)N1CC(C)(C)c2ncc(Cc3ccccc3OCCOCCN[C@H](Cc3cccc(F)c3)C(=O)Nc3ccc(-c4ccncc4)cc3)cc21 [Example 71, (R)-3-(3-Fluorophenyl)-2-((2-(2-(2-((1-(2-((2R,5R)-2-(methoxymethyl)-5-methylpiperazin-1-yl)acetyl)-3,3-dimethyl-2,3-dihydro-1H-pyrrolo[3,2-b]pyridin-6-yl)methyl)phenoxy)ethoxy)ethyl)amino)-N-(4-(pyridin-4-yl)phenyl)propanamide]",inhibition at 1 µM,degradation rate at 1 µM,25 to 50%
same,inhibition at 10 µM,degradation rate at 10 µM,< 25%
